Earlier results as cited in patent US12667577B2, “Pharmaceutical composition, and aprepitant injection and freeze-dried powder injection” (WISDOM PHARMACEUTICAL CO., LTD, priority 2022, dated 2026).
Converted amounts (≈) assume the structure as drawn.

Assays:
[1] = target: human substance P neurokinin-1 (NK1) receptor (Homo sapiens, UniProt P25103)
[2] = target: T1, 5-hydroxytryptamine receptor 3 (5-HT3) (Homo sapiens, UniProt P46098)
T1 sequence (P46098 24-478): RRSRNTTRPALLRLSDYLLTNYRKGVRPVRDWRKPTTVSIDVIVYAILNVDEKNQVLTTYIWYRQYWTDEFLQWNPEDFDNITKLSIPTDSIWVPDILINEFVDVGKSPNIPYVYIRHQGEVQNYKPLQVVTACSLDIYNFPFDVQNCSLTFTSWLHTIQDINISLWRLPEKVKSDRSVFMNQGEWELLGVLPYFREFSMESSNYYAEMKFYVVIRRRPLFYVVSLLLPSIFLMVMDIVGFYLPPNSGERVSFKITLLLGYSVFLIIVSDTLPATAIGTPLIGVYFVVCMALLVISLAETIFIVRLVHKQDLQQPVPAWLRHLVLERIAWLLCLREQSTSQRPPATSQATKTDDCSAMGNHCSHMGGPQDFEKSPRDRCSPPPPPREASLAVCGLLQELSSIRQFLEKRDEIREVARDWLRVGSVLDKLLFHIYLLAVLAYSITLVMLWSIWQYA

glucocorticoid receptor = target: T2, glucocorticoid receptor (Homo sapiens, UniProt P04150)
T2 sequence (P04150 1-777): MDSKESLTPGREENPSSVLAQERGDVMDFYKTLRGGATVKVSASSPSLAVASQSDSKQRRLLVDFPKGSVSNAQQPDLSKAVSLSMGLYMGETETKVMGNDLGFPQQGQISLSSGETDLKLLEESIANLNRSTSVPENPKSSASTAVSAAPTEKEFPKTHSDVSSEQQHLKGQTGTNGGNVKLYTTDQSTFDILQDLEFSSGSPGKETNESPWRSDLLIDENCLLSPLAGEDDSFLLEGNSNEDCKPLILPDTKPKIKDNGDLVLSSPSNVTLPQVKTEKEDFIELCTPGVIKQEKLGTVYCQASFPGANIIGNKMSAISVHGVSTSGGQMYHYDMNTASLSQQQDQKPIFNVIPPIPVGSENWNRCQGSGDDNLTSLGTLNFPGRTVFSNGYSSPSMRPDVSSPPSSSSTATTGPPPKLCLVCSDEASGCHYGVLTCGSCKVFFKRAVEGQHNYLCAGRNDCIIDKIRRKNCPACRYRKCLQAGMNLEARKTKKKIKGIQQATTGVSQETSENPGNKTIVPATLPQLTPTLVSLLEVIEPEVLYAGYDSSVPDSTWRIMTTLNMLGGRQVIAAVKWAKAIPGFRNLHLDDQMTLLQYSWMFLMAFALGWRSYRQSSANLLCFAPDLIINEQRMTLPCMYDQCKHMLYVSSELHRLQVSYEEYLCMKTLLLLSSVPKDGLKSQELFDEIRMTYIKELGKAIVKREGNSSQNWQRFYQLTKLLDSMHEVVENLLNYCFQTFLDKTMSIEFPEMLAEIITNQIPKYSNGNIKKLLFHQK

[3] = clinical data

human substance P neurokinin-1 (NK1) receptor, sequence (P25103 whole entry): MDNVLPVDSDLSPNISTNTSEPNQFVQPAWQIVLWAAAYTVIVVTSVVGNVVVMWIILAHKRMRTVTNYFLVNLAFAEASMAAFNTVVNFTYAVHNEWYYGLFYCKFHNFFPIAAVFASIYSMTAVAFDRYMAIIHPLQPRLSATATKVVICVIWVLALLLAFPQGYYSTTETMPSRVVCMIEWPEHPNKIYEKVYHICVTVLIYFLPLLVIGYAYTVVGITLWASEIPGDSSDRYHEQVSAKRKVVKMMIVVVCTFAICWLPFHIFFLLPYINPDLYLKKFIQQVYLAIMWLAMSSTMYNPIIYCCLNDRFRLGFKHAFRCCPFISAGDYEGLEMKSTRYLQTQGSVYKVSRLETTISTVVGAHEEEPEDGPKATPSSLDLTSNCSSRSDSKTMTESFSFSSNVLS

classification in biopharmaceutics (low dissolution and low permeability): Class IV
solubility in ethanol, isopropyl acetate, and acetonitrile (room temperature): slightly soluble
solubility in water (room temperature): 0.55 µg/mL (≈ 1.03 µM)
affinity to NK1 receptor [1]: high-affinity
affinity to 5-HT3 [2]: low or no affinity
affinity to glucocorticoid receptor (glucocorticoid receptor): low or no affinity
affinity to dopamine receptor (dopamine receptor): low or no affinity
Compound: C[C@@H](O[C@H]1OCCN(Cc2n[nH]c(=O)[nH]2)[C@H]1c1ccc(F)cc1)c1cc(C(F)(F)F)cc(C(F)(F)F)c1 [aprepitant, Aprepitant]
adverse effect rate at injection sites [3]: 0.5%
